From patent US20250059205A1, “Heterocyclic Compounds and Methods of Use” (AMGEN INC., priority 2021, published 2025)
pIC50: −log10 of the molar value. Like-named read-outs stand apart in the source and are kept apart here.

Key:
[1] = target: His-tagged KRAS G12D protein (Homo sapiens, UniProt P01116, G12D); test: KRAS G12D TR-FRET Assay; type: binding
Method: Compounds of interest were prepared in a dose-response titration in DMSO, and 80 nL were added via Labcyte Echo to each well of a 384-well plate (Perkin Elmer 6008280). […] The plate was incubated for 30 minutes at room temperature. Biotinylated KRPep-2d substrate (Amgen) was diluted to 20 nM in Assay Buffer and 2 μL was added to all wells and incubated for 1 h at room temperature. Detection Reagent (0.4 nM LANCE Eu-W1024 Anti-6xHis (Perkin Elmer AD0401), 5 nM streptavidin-d2 (Cisbio 610SADLA)) was prepared in Assay Buffer, then 4 μL was added to the plate and incubated for 1 h at room temperature. Plates were read using PerkinElmer EnVision (ex: 320 nm, em1: 665 nm, em2: 615 nm) and em1/em2 data was used to generate curve fits using a 4-parameter logistic model to calculate IC50 values.

[2] = target: GDP-bound KRAS protein (aa 1-169), containing both G12D and C118A amino acid substitutions (Homo sapiens, UniProt P01116, C118A/G12D); test: KRAS G12D Coupled Nucleotide Exchange Assay; type: biochemical; conditions: 2 h compound pre-incubation
Method: Following compound pre-incubation, purified SOS protein (aa 564-1049) and GTP (Roche 10106399001) were added to the assay wells and incubated for an additional 30 min. […] The assay plates were then read on a PerkinElmer EnVision Multilabel Reader, using AlphaScreen® technology, and data were analyzed using a 4-parameter logistic model to calculate IC50 values.

[3] = system: Phosphorylation of ERK1/2 in AsPC-1 cells; test: Phospho-ERK1/2 MSD Assay (AsPC-1 cells); type: cell-based; conditions: Homo sapiens, read-out: p-ERK (AsPC-1 cells) IC50
Method: AsPC-1 (ATCC® CRL-1682™) cells were cultured in RPMI 1640 Medium (ThermoFisher Scientific 11875093) containing 10% fetal bovine serum (ThermoFisher Scientific 16000044) and 1× penicillin-streptomycin-glutamine (ThermoFisher Scientific 10378016). Sixteen hours prior to compound treatment, AsPC-1 cells were seeded in 96-well cell culture plates at a density of 25,000 cells/well and incubated at 37° C., 5% CO2. A compound dose-response titration was diluted in growth media, added to appropriate wells of a cell culture plate, and then incubated at 37° C., 5% CO2 for 2 hours. Following compound treatment, cells were washed with ice-cold Dulbecco's phosphate-buffered saline, no Ca^2+ or Mg^2+ (ThermoFisher Scientific 14190144), and then lysed in RIPA buffer (50 mM Tris-HCl pH 7.5, 1% Igepal, 0.5% sodium deoxycholate, 150 mM NaCl, and 0.5% sodium dodecyl sulfate) containing protease inhibitors (Roche 4693132001) and phosphatase inhibitors (Roche 4906837001). Phosphorylation of ERK1/2 in compound-treated lysates was assayed using Phospho-ERK1/2 Whole Cell Lysate kits (Meso Scale Discovery K151DWD) according to the manufacturer's protocol. Assay plates were read on a Meso Scale Discovery Sector Imager 6000, and data were analyzed using a 4-parameter logistic model to calculate IC50 values.

Sequence of His-tagged KRAS G12D protein (P01116 1-188 isoform P01116-2 G12D): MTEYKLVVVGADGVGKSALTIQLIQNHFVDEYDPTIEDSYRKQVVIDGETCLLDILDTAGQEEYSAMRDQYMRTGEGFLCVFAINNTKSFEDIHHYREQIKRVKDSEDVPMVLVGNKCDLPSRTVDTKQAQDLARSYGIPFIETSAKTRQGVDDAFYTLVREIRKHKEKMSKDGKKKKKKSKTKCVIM
Sequence of GDP-bound KRAS protein (aa 1-169), containing both G12D and C118A amino acid substitutions (P01116 1-169 isoform P01116-2 G12D/C118A): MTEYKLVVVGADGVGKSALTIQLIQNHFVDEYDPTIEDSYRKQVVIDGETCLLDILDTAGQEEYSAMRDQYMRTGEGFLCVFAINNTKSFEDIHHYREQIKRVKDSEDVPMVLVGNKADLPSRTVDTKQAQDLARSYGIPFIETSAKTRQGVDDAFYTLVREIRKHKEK

Oc1cc(-c2ccc3c(N4[C@@H]5CC[C@H]4CNC5)nc(OC[C@@]45CCCN4C[C@H](F)C5)nc3c2F)c2cnccc2c1 [Example 31, 8-(4-((1R,5S)-3,8-diazabicyclo[3.2. 1]octan-8-yl)-8-fluoro-2-(((2R,7aS)-2-fluorotetrahydro-1H-pyrrolizin-7a(5H)-yl)methoxy)quinazolin-7-yl)isoquinolin-6-ol]
pIC50 [1]: 6.26
Avg 2 h Coupled Exchange IC50 [2]: 0.259 µM

CN1C[C@H](F)C[C@H]1COc1nc(N2[C@@H]3CC[C@H]2CNC3)c2cc(F)c(-c3cc(O)cc4ccccc34)c(O)c2n1 [Example 103, 4-((1R,5S)-3,8-diazabicyclo[3.2.1]octan-8-yl)-6-fluoro-2-(((2S,4R)-4-fluoro-1-methylpyrrolidin-2-yl)methoxy)-7-(3-hydroxynaphthalen-1-yl)quinazolin-8-ol]
pIC50 [1]: 5.97
Avg 2 h Coupled Exchange IC50 [2]: 0.517 µM

CCc1c(F)ccc2cc(O)cc(-c3c(F)cc4c(N5C[C@H]6CC[C@@H](C5)N6)nc(OCC5(C)CCC(=O)N5)nc4c3F)c12 (stereo partly drawn) [Example 216, 5-(((4-((1R,5S)-3,8-diazabicyclo[3.2.1]octan-3-yl)-7-(8-ethyl-7-fluoro-3-hydroxynaphthalen-1-yl)-6,8-difluoroquinazolin-2-yl)oxy)methyl)-5-methylpyrrolidin-2-one]
pIC50 [1]: 8.30
Avg 2 h Coupled Exchange IC50 [2]: 0.009 µM
pIC50 ([3]; ASPC1, 2 h, 2 hours treatment): 6.08

CCc1c(F)ccc2cc(O)cc(-c3ccc4c(N5C[C@H]6CC[C@@H](C5)N6)cc(OC[C@@]56CCCN5C[C@H](F)C6)nc4c3)c12 [Example 210, 4-(4-((1R,5S)-3,8-Diazabicyclo[3.2.1]octan-3-yl)-2-(((2R,7aS)-2-fluorotetrahydro-1H-pyrrolizin-7a(5H)-yl)methoxy)quinolin-7-yl)-5-ethyl-6-fluoronaphthalen-2-ol]
pIC50 [1]: 7.36
Avg 2 h Coupled Exchange IC50 [2]: 0.069 µM

CCc1c(F)ccc2cc(O)cc(-c3c(O)cc4c(N5CC6CCC(C5)N6)nc(OCC56CCCN5C[C@H](F)C6)nc4c3F)c12 (atropisomer, axis not shown; (M)) [Example 234, (M)-4-((1R,5S)-3,8-Diazabicyclo[3.2.1]octan-3-yl)-7-(8-ethyl-7-fluoro-3-hydroxynaphthalen-1-yl)-8-fluoro-2-(((2R,7aS)-2-fluorotetrahydro-1H-pyrrolizin-7a(5H)-yl)methoxy)quinazolin-6-ol]
pIC50 [1]: 9.00
Avg 2 h Coupled Exchange IC50 [2]: 0.002 µM
pIC50 ([3]; ASPC1, 2 h, 2 hours treatment): 7.66

N#Cc1c(OC[C@@]23CCCN2C[C@H](F)C3)nc2c(F)c(-c3cc(O)cc4ccccc34)ccc2c1N1C[C@H]2CC[C@@H](C1)N2 [Example 62, 4-((1R,5S)-3,8-diazabicyclo[3.2. 1]octan-3-yl)-8-fluoro-2-(((2R,7aS)-2-fluorotetrahydro-1H-pyrrolizin-7a(5H)-yl)methoxy)-7-(3-hydroxynaphthalen-1-yl)quinoline-3-carbonitrile]
pIC50 [1]: 5.58
Avg 2 h Coupled Exchange IC50 [2]: 1.17 µM

CCc1c(F)ccc2cc(O)cc(-c3ccc4c(N5C[C@@H]6CC[C@](F)(C5)N6)nc(OC[C@@]56CCCN5C[C@H](F)C6)nc4c3F)c12 [Example 178, 5-ethyl-6-fluoro-4-(8-fluoro-4-((1S,5S)-1-fluoro-3,8-diazabicyclo[3.2.1]octan-3-yl)-2-(((2R,7aS)-2-fluorotetrahydro-1H-pyrrolizin-7a(5H)-yl)methoxy)quinazolin-7-yl)naphthalen-2-ol]
pIC50 [1]: 8.52
Avg 2 h Coupled Exchange IC50 [2]: 0.005 µM
pIC50 ([3]; ASPC1, 2 h, 2 hours treatment): 6.84

Oc1cc(-c2ccc3c(N4C[C@H]5COC[C@@H](C4)N5)nc(OC[C@@]45CCCN4C[C@H](F)C5)nc3c2F)c2ccccc2c1 [Example 16, 4-(4-((1R,5S)-3-oxa-7,9-diazabicyclo[3.3. 1]nonan-7-yl)-8-fluoro-2-(((2R,7aS)-2-fluorotetrahydro-1H-pyrrolizin-7a(5H)-yl)methoxy)quinazolin-7-yl)naphthalen-2-ol]
pIC50 [1]: 7.70
Avg 2 h Coupled Exchange IC50 [2]: 0.007 µM
pIC50 ([3]; ASPC1, 2 h, 2 hours treatment): 5.32

C=Cc1c(F)ccc2cccc(-c3ccc4c(N5[C@@H]6CC[C@H]5CNC6)nc(OC[C@@]56CCCN5C[C@H](F)C6)nc4c3)c12 [Example 104, 4-((1R,5S)-3,8-diazabicyclo[3.2.1]octan-8-yl)-7-(7-fluoro-8-vinylnaphthalen-1-yl)-2-(((2R,7aS)-2-fluorotetrahydro-1H-pyrrolizin-7a(5H)-yl)methoxy)quinazoline]
pIC50 [1]: 6.26
Avg 2 h Coupled Exchange IC50 [2]: 2.3 µM

CCc1c(F)ccc2cc(O)cc(-c3ccc4c(N5C[C@H]6CC[C@@](F)(C5)N6)nc(OC[C@@]56CCCN5C[C@H](F)C6)nc4c3F)c12 [Example 179, 5-ethyl-6-fluoro-4-(8-fluoro-4-((1R,5R)-1-fluoro-3,8-diazabicyclo[3.2.1]octan-3-yl)-2-(((2R,7aS)-2-fluorotetrahydro-1H-pyrrolizin-7a(5H)-yl)methoxy)quinazolin-7-yl)naphthalen-2-ol]
pIC50 [1]: 8.70
Avg 2 h Coupled Exchange IC50 [2]: 0.004 µM
pIC50 ([3]; ASPC1, 2 h, 2 hours treatment): 7.34

CN1C[C@H](F)C[C@H]1COc1nc2c(F)c(-c3cc(O)cc4ccccc34)c(Cl)cc2c(N2C[C@H]3CC[C@@H](C2)N3)c1C#N [Example 63, 4-((1R,5S)-3,8-diazabicyclo[3.2. 1]octan-3-yl)-6-chloro-8-fluoro-2-(((2S,4R)-4-fluoro-1-methylpyrrolidin-2-yl)methoxy)-7-(3-hydroxynaphthalen-1-yl)quinoline-3-carbonitrile]
pIC50 [1]: < 4.60
Avg 2 h Coupled Exchange IC50 [2]: 0.555 µM

Oc1cc(-c2c(F)cc3c(N4[C@@H]5CC[C@H]4CNC5)nc(OC[C@@]45CCCN4C[C@H](F)C5)nc3c2O)c2ccccc2c1 [Example 102, 4-((1R,5S)-3,8-Diazabicyclo[3.2.1]octan-8-yl)-6-fluoro-2-(((2R,7aS)-2-fluorotetrahydro-1H-pyrrolizin-7a(5H)-yl)methoxy)-7-(3-hydroxynaphthalen-1-yl)quinazolin-8-ol]
pIC50 [1]: 6.84
Avg 2 h Coupled Exchange IC50 [2]: 0.055 µM
pIC50 ([3]; ASPC1, 2 hours treatment): 5.00

Oc1ccc(Cl)c(-c2ccc3c(N4[C@@H]5CC[C@H]4CNC5)nc(OC[C@@]45CCCN4C[C@H](F)C5)nc3c2)c1F [Example 35, 3-(4-((1R,5S)-3,8-diazabicyclo[3.2. 1]octan-8-yl)-2-(((2R,7aS)-2-fluorotetrahydro-1H-pyrrolizin-7a(5H)-yl)methoxy)quinazolin-7-yl)-4-chloro-2-fluorophenol]
pIC50 [1]: 5.33
Avg 2 h Coupled Exchange IC50 [2]: 1.82 µM

N#Cc1c(OC[C@@]23CCCN2C[C@H](F)C3)nc2c(F)c(-c3cc(O)cc4ccccc34)c(Cl)cc2c1N1C[C@H]2CC[C@@H](C1)N2 [Example 61, 4-((1R,5S)-3,8-diazabicyclo[3.2. 1]octan-3-yl)-6-chloro-8-fluoro-2-(((2R,7aS)-2-fluorotetrahydro-1H-pyrrolizin-7a(5H)-yl)methoxy)-7-(3-hydroxynaphthalen-1-yl)quinoline-3-carbonitrile]
pIC50 [1]: 5.59
Avg 2 h Coupled Exchange IC50 [2]: 1.67 µM

Cn1ncc2cccc(-c3ccc4c(N5C[C@H]6CC[C@@H](C5)N6)nc(OC[C@@]56CCCN5C[C@H](F)C6)nc4c3)c21 [Example 66, 4-((1R,5S)-3,8-diazabicyclo [3.2. 1]octan-3-yl)-2-(((2R,7aS)-2-fluorotetrahydro-1H-pyrrolizin-7a(5H)-yl)methoxy)-7-(1-methyl-1H-indazol-7-yl)quinazoline]
pIC50 [1]: 6.03
Avg 2 h Coupled Exchange IC50 [2]: 0.3 µM

Oc1cc(-c2ccc3c(C4=CC5CCC(C4)N5)nc(OC[C@@]45CCCN4C[C@H](F)C5)nc3c2)c2ccccc2c1 (some centres unmarked) [Example 108]
pIC50 [1]: 4.93
Avg 2 h Coupled Exchange IC50 [2]: 0.671 µM
pIC50 ([3]; ASPC1, 2 h, 2 hours treatment): 6.38

Cc1ccc2cn[nH]c2c1-c1ccc2c(N3C[C@H]4CC[C@@H](C3)N4)nc(OC[C@@]34CCCN3C[C@H](F)C4)nc2c1 [Example 67, 4-((1R,5S)-3,8-diazabicyclo[3.2. 1]octan-3-yl)-2-(((2R,7aS)-2-fluorotetrahydro-1H-pyrrolizin-7a(5H)-yl)methoxy)-7-(6-methyl-1H-indazol-7-yl)quinazoline]
pIC50 [1]: 6.29
Avg 2 h Coupled Exchange IC50 [2]: 0.199 µM
